Each structure is given as a SMILES string.

For one compound, IC50 results are on record in BindingDB's records for doi:10.1021/jm00170a007 (Pfizer, 1990).

Experiment [1] is described as follows: inhibitory activity against 5-hydroxytryptamine 1C receptor of pig choroid plexus using [3H]mesulergine as the radioligand.
Experiment [2] can be described thus: Compound was evaluated for its inhibitory activity against 5-hydroxytryptamine 1D receptor of bovine caudate using [3H]5-HT as the radioligand.

Take `FC(F)(F)c1ccc2c(c1)nc(N1CCNCC1)c1cccn12` [4-Piperazin-1-yl-7-trifluoromethyl-pyrrolo[1,2-a]quinoxaline(desmethyl-CGS-12066B)]: the IC50 in experiment [1] is 10 µM; in experiment [2], 0.19 µM.

What is called IC50 is the point on the concentration scale where inhibition reaches its midpoint. Low values mean higher potency, high ones lower potency.
